The values that follow are results of earlier work, collected in patent US20220378840A1, “COMPOSITIONS, KITS AND METHODS FOR STORAGE OF BLOOD PRODUCTS AND METHODS OF USE THEREOF” (Rutgers, The State University of New Jersey, priority 2019, published 2022).

In data set [1] the test system is RBCs. Conditions: prolonged incubation in 3% L-carnitine.
The subject of data set [2] is RBCs. Conditions: 6% concentration L-carnitine.
The test system of the next data set is hemorrhagic shock. Particulars: 6% concentration HES.
The subject of another data set is cells. Conditions: 6% concentration HES.

On to `C[N+](C)(C)C[C@H](O)CC(=O)[O-]` [L-carnitine], for which the “toxicity on prolonged incubation” value with RBCs [1] is recorded as “non-toxic”. For the same compound, in the data set on RBCs [2], the “recovery of RBCs” value is recorded as 80%.
With Hydroxyethyl starch [HES], the “oxidative stress and inflammatory response in hemorrhagic shock” value in the data set with hemorrhagic shock was “reduces oxidative stress and inflammatory response”. Also, the “cell survival during freezing and thawing” value in the data set with cells was “improves cell survival”.
